Experimental data from patent publication US10821115B2, “Compounds that inhibit Mcl-1 protein” (priority 2017, dated 2020).
Like-named read-outs stand apart in the source and are kept apart here.

Assays:
[1] = target: recombinant human Mcl-1 (residues 171-327) / Bim interaction (Homo sapiens (Human), UniProt Q07820); test: biochemical; type: binding; conditions: read-out: Mcl-1 HTRF IC50
[2] = tested on: human multiple myeloma cell line, OPM-2; test: Cell viability assay (OPM-2 10 FBS), CellTiter-Glo; type: cell-based
Procedure, shortened: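 3000 cells/well, RPMI 1640 + 10% FBS; serial compound dilutions, 16 h, 37 °C/5% CO2.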

[3] = TR-FRET, Mcl-1(171-327) / biotin-Bim (51-76)
[4] = read-out: OPM-2 10% FBS IC50 IP, OPM-2 cells, 10% FBS, 16 h, CellTiter-Glo
[5] = Homo sapiens, OPM-2, 16 h, read-out: OPM-2 10% FBS IC50 IP, OPM-2 cells, 10% FBS, 16 h, CellTiter-Glo
[6] = 0.1 nM Mcl-1(171-327), 0.05 nM biotin-Bim (51-76)
[7] = Homo sapiens, OPM-2, 16 h, read-out: OPM-2 10% FBS IC50 IP, OPM-2 cells, 10% FBS, 16 h incubation

Sequence of recombinant human Mcl-1 (residues 171-327) / Bim interaction (Q07820 171-327): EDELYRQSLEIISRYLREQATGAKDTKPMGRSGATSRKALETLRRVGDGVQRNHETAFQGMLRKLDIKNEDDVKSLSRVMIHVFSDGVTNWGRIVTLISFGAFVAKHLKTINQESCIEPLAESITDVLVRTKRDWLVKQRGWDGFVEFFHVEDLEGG

Structure (SMILES) | IC50 [1, 3] [nM] | IC50 [1, 6] [nM] | IC50 [2, 7] [nM] | other results
C[C@@H]1[C@@H](C)C/C=C/[C@@](O)(CC(=O)N2CCCC2)[C@@H]2CC[C@H]2CN2C[C@@]3(CCCc4cc(Cl)ccc43)COc3ccc(cc32)C(=O)NS1(=O)=O [Example 100253, (1S,3′R,6′R,7′S,8′E,11′S,12′R)-6-chloro-7′-hydroxy-11′,12′-dimethyl-7′-(2-oxo-2-(1-pyrrolidinyl)ethyl)-3,4-dihydro-2H,15′H-spiro[naphthalene-1,22′-[20]oxa[13]thia[1,14]diazatetracyclo [14.7.2.0~3,6~.0~19,24~]pentacosa[8,16,18,24]tetraen]-15′-one 13′,13′-dioxide] | 0.149 |  |  | IC50 [2, 4]: 544 nM
CC[C@@H]1CCCC[C@](O)(CO)[C@@H]2CC[C@H]2CN2C[C@@]3(CCCc4cc(Cl)ccc43)COc3ccc(cc32)C(=O)NS1(=O)=O [Example 100036, (1S,3′R,6′R,7′R,12′R)-6-chloro-12′-ethyl-7′-hydroxy-7′-(hydroxymethyl)-3,4-dihydro-2H,15′H-spiro[naphthalene-1,22′-[20]oxa[13]thia[1,14]diazatetracyclo [14.7.2.0~3,6~.0~19,24~]pentacosa[16,18,24]trien]-15′-one 13′,13′-dioxide] | 0.889 |  |  | IC50 [2, 5]: 1980 nM
C[C@@H]1[C@@H](C)C/C=C/[C@@](O)(CC(=O)N2CCOCC2)[C@@H]2CC[C@H]2CN2C[C@@]3(CCCc4cc(Cl)ccc43)COc3ccc(cc32)C(=O)NS1(=O)=O [Example 100085, (1S,3′R,6′R,7′S,8′E,11′S,12′R)-6-chloro-7′-hydroxy-11′,12′-dimethyl-7′-(2-(4-morpholinyl)-2-oxoethyl)-3,4-dihydro-2H,15′H-spiro[naphthalene-1,22′-[20]oxa[13]thia[1,14]diazatetracyclo [14.7.2.0~3,6~.0~19,24~]pentacosa[8,16,18,24]tetraen]-15′-one 13′,13′-dioxide] |  |  |  | IC50 [1]: 0.245 nM; IC50 [2, 5]: 288 nM
C[C@@H]1[C@@H](C)C/C=C/[C@](O)(C(C)(C)C#N)[C@@H]2CC[C@H]2CN2C[C@@]3(CCCc4cc(Cl)ccc43)COc3ccc(cc32)C(=O)NS1(=O)=O [Example 100060, 2-((1S,3′R,6′R,7′R,8′E,11′S,12′R)-6-chloro-7′-hydroxy-11′,12′-dimethyl-13′,13′-dioxido-15′-oxo-3,4-dihydro-2H-spiro[naphthalene-1,22′-[20]oxa[13]thia[1,14]diazatetracyclo [14.7.2.0~3,6~.0~19,24~]pentacosa[8,16,18,24]tetraen]-7′-yl)-2-methylpropanenitrile] | 4.01 |  |  | IC50 [2, 4]: 5980 nM
C[C@@H]1[C@@H](C)C/C=C/[C@]2(CN(CC3CCCCC3)CCO2)[C@@H]2CC[C@H]2CN2C[C@@]3(CCCc4cc(Cl)ccc43)COc3ccc(cc32)C(=O)NS1(=O)=O [Example 139, (1S,3′R,6′R,7′R,8′E,11′S,12′R)-6-chloro-4″- (cyclohexylmethyl)-11′,12′-dimethyl-3,4-dihydro-2H,15′H-dispiro[naphthalene-1,22′-[20]oxa[13]thia[1,14]diazatetracyclo [14.7.2.0~3,6~.0~19,24~]pentacosa[8,16,18,24]tetraene-7′,2″-[1,4]oxazinan]-15′-one 13′,13′-dioxide] |  | 32 | > 33300 | 
CO[C@@]1(CC2=NC(C)(C)C(=O)O2)/C=C/C[C@H](C)[C@@H](C)S(=O)(=O)NC(=O)c2ccc3c(c2)N(C[C@@H]2CC[C@H]21)C[C@@]1(CCCc2cc(Cl)ccc21)CO3 [Example 100547, (1S,3′R,6′R,7′S,8′E,11′S,12′R)-6-chloro-7′-((4,4-dimethyl-5-oxo-4,5-dihydro-1,3-oxazol-2-yl)methyl)-7′-methoxy-11′,12′-dimethyl-3,4-dihydro-2H,15′H-spiro[naphthalene-1,22′-[20]oxa[13]thia[1,14]diazatetracyclo [14.7.2.0~3,6~.0~19,24~]pentacosa[8,16,18,24]tetraen]-15′-one 13′,13′-dioxide] | 0.031 |  |  | IC50 [2, 5]: 1860 nM
COCCN(C)C(=O)C[C@]1(O)CCC[C@H](C)[C@@H](C)S(=O)(=O)NC(=O)c2ccc3c(c2)N(C[C@@H]2CC[C@H]21)C[C@@]1(CCCc2cc(Cl)ccc21)CO3 [Example 100141, 2-((1S,3′R,6′R,7′R,11′S,12′R)-6-chloro-7′-hydroxy-11′,12′-dimethyl-13′,13′-dioxido-15′-oxo-3,4-dihydro-2H-spiro[naphthalene-1,22′-[20]oxa[13]thia[1,14]diazatetracyclo [14.7.2.0~3,6~.0~19,24~]pentacosa[16,18,24]trien]-7′-yl)-N-(2-methoxyethyl)-N-methylacetamide] | 1.06 |  |  | IC50 [2, 4]: 1370 nM
CO[C@@]1(CN2CCc3ncncc3C2)/C=C/C[C@H](C)[C@@H](C)S(=O)(=O)NC(=O)c2ccc3c(c2)N(C[C@@H]2CC[C@H]21)C[C@@]1(CCCc2cc(Cl)ccc21)CO3 [Example 223, (1S,3′R,6′R,7′S,8′E,11′S,12′R)-6-chloro-7′-(7,8-dihydropyrido[4,3-d]pyrimidin-6(5H)-ylmethyl)-7′-methoxy-11′,12′-dimethyl-3,4-dihydro-2H,15′H-spiro[naphthalene-1,22′-[20]oxa[13]thia[1,14]diazatetracyclo [14.7.2.0~3,6~.0~19,24~]pentacosa[8,16,18,24]tetraen]-15′-one 13′,13′-dioxide] |  | 0.251 | 258 | 
CO[C@@]1(CN2CCN(C3COCCOC3)CC2)/C=C/C[C@H](C)[C@@H](C)S(=O)(=O)NC(=O)c2ccc3c(c2)N(C[C@@H]2CC[C@H]21)C[C@@]1(CCCc2cc(Cl)ccc21)CO3 [Example 340, (1S,3′R,6′R,7′S,8′E,11′S,12′R)-6-chloro-7′-((4-(1,4-dioxepan-6-yl)-1-piperazinyl)methyl)-7′-methoxy-11′,12′-dimethyl-3,4-dihydro-2H,15′H-spiro[naphthalene-1,22′-[20]oxa[13]thia[1,14]diazatetracyclo [14.7.2.0~3,6~.0~19,24~]pentacosa[8,16,18,24]tetraen]-15′-one 13′,13′-dioxide] |  | 0.128 | 60 | 
CCCCO[C@]1(CN2CCN3CCOC[C@@H]3C2)/C=C/C[C@H](C)[C@@H](C)S(=O)(=O)NC(=O)c2ccc3c(c2)N(C[C@@H]2CC[C@H]21)C[C@@]1(CCCc2cc(Cl)ccc21)CO3 [Example 48, (1S,3′R,6′R,7′R,8′E,11′S,12′R)-7′-butoxy-6-chloro-7′-((9aS)-hexahydropyrazino[2,1-c][1,4]oxazin-8(1H)-ylmethyl)-11′,12′-dimethyl-3,4-dihydro-2H,15′H-spiro[naphthalene-1,22′-[20]oxa[13]thia[1,14]diazatetracyclo [14.7.2.0~3,6~.0~19,24~]pentacosa[8,16,18,24]tetraen]-15′-one 13′,13′-dioxide] |  | 0.14 | 407 | 
CO[C@]1(CN2CCN(CC(F)F)CC2)/C=C/C[C@H](C)[C@@H](C)S(=O)(=O)NC(=O)c2ccc3c(c2)N(C[C@@H]2CC[C@H]21)C[C@@]1(CCCc2cc(Cl)ccc21)CO3 [Example 95, (1S,3′R,6′R,7′R,8′E,11′S,12′R)-6-chloro-7′-((4-(2,2-difluoroethyl)-1-piperazinyl)methyl)-7′-methoxy-11′,12′-dimethyl-3,4-dihydro-2H,15′H-spiro[naphthalene-1,22′-[20]oxa[13]thia[1,14]diazatetracyclo [14.7.2.0~3,6~.0~19,24~]pentacosa[8,16,18,24]tetraen]-15′-one 13′,13′-dioxide] |  | 0.189 | 338 | 
CO[C@@]1(C#CCCO)/C=C/C[C@H](C)[C@@H](C)S(=O)(=O)NC(=O)c2ccc3c(c2)N(C[C@@H]2CC[C@H]21)C[C@@]1(CCCc2cc(Cl)ccc21)CO3 [Example 100427, (1S,3′R,6′R,7′S,8′E,11′S,12′R)-6-chloro-7′-(4-hydroxy-1-butyn-1-yl)-7′-methoxy-11′,12′-dimethyl-3,4-dihydro-2H,15′H-spiro[naphthalene-1,22′-[20]oxa[13]thia[1,14]diazatetracyclo [14.7.2.0~3,6~.0~19,24~]pentacosa[8,16,18,24]tetraen]-15′-one 13′,13′-dioxide] | 0.209 |  |  | IC50 [2, 5]: 342 nM
CO[C@]1(CN2CCN3CCCC[C@@H]3C2)/C=C/C[C@H](C)[C@@H](CCN2CCOCC2)S(=O)(=O)NC(=O)c2ccc3c(c2)N(C[C@@H]2CC[C@H]21)C[C@@]1(CCCc2cc(Cl)ccc21)CO3 [Example 365, (1S,3′R,6′R,7′R,8′E,11′S,12′R)-6-chloro-7′-methoxy-11′-methyl-12′-(2-(4-morpholinyl)ethyl)-7′-((9aR)-octahydro-2H-pyrido[1,2-a]pyrazin-2-ylmethyl)-3,4-dihydro-2H,15′H-spiro[naphthalene-1,22′-[20]oxa[13]thia[1,14]diazatetracyclo [14.7.2.0~3,6~.0~19,24~]pentacosa[8,16,18,24]tetraen]-15′-one 13′,13′-dioxide] |  | 0.104 | 32 | 
CO[C@@H](C[C@]1(OC)/C=C/C[C@H](C)[C@@H](C)S(=O)(=O)NC(=O)c2ccc3c(c2)N(C[C@@H]2CC[C@H]21)C[C@@]1(CCCc2cc(Cl)ccc21)CO3)C1CC1 [Example 100463, (1S,3′R,6′R,7′S,8′E,11′S,12′R)-6-chloro-7′-((2S)-2-cyclopropyl-2-methoxyethyl)-7′-methoxy-11′,12′-dimethyl-3,4-dihydro-2H,15′H-spiro[naphthalene-1,22′-[20]oxa[13]thia[1,14]diazatetracyclo [14.7.2.0~3,6~.0~19,24~]pentacosa[8,16,18,24]tetraen]-15′-one 13′,13′-dioxide] | 0.383 |  |  | IC50 [2, 4]: 1130 nM
